Where a name gives a salt, the structure may show the parent alone.
Legend:
Cdc7 = Cdc7 (Homo sapiens, UniProt O00311); assay: Cdc7 cell pharmacodynamics assay Method 3: pS53MCM2 levels in SW48 cells; format: cell-based; set-up: endogenous in cells; host or cells: SW48; details: 6 hours treatment, read-out: Biomarker Method 3 (pEC50) (converted)
Text: This protocol describes a method to investigate the inhibition of Cdc7 activity by measuring pS53MCM2 levels in cells, after treatment with compounds.
• SW48 cells • RPMI 1640 (Sigma, R5886) • 10% FCS (Sera Laboratories International Ltd, EU000F Batch: 108005) • 100× L-Glutamine (Invitrogen, 25030-024) • D-Glucose Solution (10%) (Sigma, G8644) • HEPES Buffer Solution (Sigma, 83264) • Sodium Pyruvate (Sigma, S8636) • PBS (Fisger, BP399-4) • Trypsin/EDTA (Invitrogen 25300-054) • 2% BSA in PBS • Cell Extraction Buffer (Invitrogen FNN0011) • Protease inhibitor cocktail (Sigma P-2714) • PMSF 0.3M stock in DMSO (Sigma P7626) • Antibody—rabbit pMCM2 Ser53 (Bethyl #A300-756A) • Antibody—goat MCM2 (Bethyl #A300-122A) • Antibody—goat Anti Rabbit IgG HRP (Perbio Science UK Ltd 31462) • SuperSignal ELISA Pico Chemiluminescent Substrate (Perbio Science UK Ltd 37070) Method • Plate 30,000 SW48 cells per well in standard TC treated 96 well plate in 100 μL complete RPMI 1640 medium. • Allow cells to settle overnight in incubator set at 37° C. and 5% CO2. • Cell treatment: prepare a 384 well plate containing 80 μl PBS/well. The PBS should be at room temperature—to be referred to as intermediate plate. Transfer 2 μL of compound from mother plate to intermediate (daughter plate) 1:40 dilution, then 5 μL intermediate to cell (daughter) plate. • Once all cells are treated place the cells back to the incubator and incubate for 6 hours. • Dilute the capture antibody (total MCM2 #A300-122A) 1 in 250 in the required volume of PBS (5 mL per assay plate, plus 5 mL for dead volume) and add 50 μL to each well of a Hybond plate. Seal the plate and incubate at room temperature for a minimum of 2 hours. • Defrost aliquot of Invitrogen Cell Extraction Buffer (FNN0011) on ice and supplement with appropriate volume of both Sigma protease inhibitor cocktail (P-2714) and PMSF (final cone 1 mM from a 1 M stock in DMSO). • After the 6 hour cell treatment time, tap out the media from the assay plates and place them in the −80° C. freezer for at least 5 minutes. • Remove plates from freezer and add 20 μL of ice cold complete lysis buffer, with the multidrop. Incubate cells for 30 minutes at 4° C. • Add 80 μL per well 2% BSA. • Flick out the remaining liquid from the capture plate and transfer 80 μL from the lysis plate to the same wells in the capture/ELISA plate, using the Biomek. Cover with plate seal and incubate plates overnight at 4° C. • Wash plates with PBS, remove any residual remaining liquid and add 50 μL per well of pMCM2 Ser53 antibody (#A300-756A) diluted 1 in 100 in 2% BSA. Cover plate and incubate at room temperature for 2 hours with gentle shaking. • Wash plates with PBS, remove any residual remaining liquid and Incubate with 50 μL goat anti rabbit antibody (1 in 800 dilution in 2% BSA), for 1 hour at room temperature. • Wash plates with PBS, remove any residual remaining liquid and add 50 μL mixed SuperSignal Pico substrate. • Incubate each plate for 5 minutes at room temperature shielding the plates from direct light (with a cover plate). Read plates with the luminescent detection. Results

Cdc7/ASK = Cdc7/ASK (Homo sapiens, UniProt O00311); assay: Cdc7 biochemical assay Method 3: off-chip mobility shift assay (MSA) run at Carna Biosciences; set-up: purchased Carna Biosciences; host or cells: baculovirus expression system; details: MCM2 peptide 1000 nM, ATP 5 μM, 5 hours, read-out: Biochemical method 3 (pIC50) (converted)
Method: This protocol describes a method for assaying Cdc7/ASK for activity. The assay is an off-chip mobility shift assay (MSA) run at Carna Biosciences.
The test compound was dissolved in and diluted with dimethylsulfoxide (DMSO) to achieve 100-fold higher concentration which was specified by the sponsor. Then the solution was further 25-fold diluted with assay buffer to make the final test compound solution. Reference compounds for assay control were prepared similarly. 2. Kinase Cdc7/ASK: Full-length human Cdc7 [1-574(end) amino acids of accession number NP_003494.1] was co-expressed as N-terminal GST-fusion protein (92 kDa) with Dbf4(ASK) [1-674(end) amino acids of accession number NP_006707.1] using baculovirus expression system. GST-Cdc7 was purified by using glutathione sepharose chromatography. 3. Assay Reagents and Procedures Off-Chip Mobility Shift Assay (MSA) • 1) The […] were prepared with assay buffer (20 mM HEPES, 0.01% Triton X-100, 1 mM DTT, pH 7.5) and mixed and incubated in a well of polypropylene 384 well microplate for 5 hours at room temperature. • 2) […] of Termination Buffer (QuickScout Screening Assist MSA; Carna Biosciences) was added to the well. • 3) The reaction mixture was applied to LabChip system (Perkin Elmer), and the product and substrate peptide peaks were separated and quantitated. • 4) The kinase reaction was evaluated by the product ratio calculated from peak heights of product (P) and substrate (S) peptides (P/(P+S)). 4. Reaction Conditions
5. Data Analysis The readout value of reaction control (complete reaction mixture) was set as a 0% inhibition, and the readout value of background (Enzyme(−)) was set as a 100% inhibition, then the percent inhibition of each test solution was calculated. IC50 value was calculated from concentration vs. % Inhibition curves by fitting to a four parameter logistic curve. Results

Sequence of Cdc7 (O00311 whole entry): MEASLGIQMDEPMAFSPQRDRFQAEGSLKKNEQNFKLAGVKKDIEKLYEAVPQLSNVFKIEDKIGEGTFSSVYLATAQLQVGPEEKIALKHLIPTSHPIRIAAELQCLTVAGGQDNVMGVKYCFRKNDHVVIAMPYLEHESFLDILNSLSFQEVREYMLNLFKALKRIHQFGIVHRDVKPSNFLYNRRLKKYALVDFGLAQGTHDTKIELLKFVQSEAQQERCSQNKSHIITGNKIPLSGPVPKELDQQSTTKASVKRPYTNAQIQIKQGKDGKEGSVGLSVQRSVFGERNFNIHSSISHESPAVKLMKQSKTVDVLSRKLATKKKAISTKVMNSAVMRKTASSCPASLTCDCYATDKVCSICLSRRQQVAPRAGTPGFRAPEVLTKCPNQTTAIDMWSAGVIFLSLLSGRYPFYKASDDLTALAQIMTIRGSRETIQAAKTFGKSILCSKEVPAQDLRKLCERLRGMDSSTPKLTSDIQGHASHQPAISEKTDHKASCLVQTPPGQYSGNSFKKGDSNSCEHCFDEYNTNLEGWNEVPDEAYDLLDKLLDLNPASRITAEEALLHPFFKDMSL
Sequence of Cdc7 (Q9UBU7 whole entry partner): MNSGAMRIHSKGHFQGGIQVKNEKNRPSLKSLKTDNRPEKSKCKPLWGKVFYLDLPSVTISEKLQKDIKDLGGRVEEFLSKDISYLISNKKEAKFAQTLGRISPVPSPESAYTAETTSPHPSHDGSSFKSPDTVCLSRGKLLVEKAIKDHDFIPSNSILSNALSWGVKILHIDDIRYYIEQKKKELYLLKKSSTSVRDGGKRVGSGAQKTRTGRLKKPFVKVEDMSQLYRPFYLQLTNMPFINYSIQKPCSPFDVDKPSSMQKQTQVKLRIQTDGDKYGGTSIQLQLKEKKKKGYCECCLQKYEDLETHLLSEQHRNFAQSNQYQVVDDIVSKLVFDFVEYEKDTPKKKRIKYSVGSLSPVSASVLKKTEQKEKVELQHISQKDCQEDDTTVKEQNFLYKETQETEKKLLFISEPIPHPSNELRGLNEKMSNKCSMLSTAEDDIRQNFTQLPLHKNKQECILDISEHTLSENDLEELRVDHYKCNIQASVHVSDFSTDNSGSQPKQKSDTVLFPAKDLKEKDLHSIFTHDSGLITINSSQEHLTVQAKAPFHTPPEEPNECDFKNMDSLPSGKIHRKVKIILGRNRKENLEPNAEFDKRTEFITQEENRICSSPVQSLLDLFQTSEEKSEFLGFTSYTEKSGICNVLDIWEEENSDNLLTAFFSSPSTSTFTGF
Sequence of Cdc7/ASK (O00311 whole entry): as the sequence (O00311 whole entry) above
Sequence of Cdc7/ASK (Q9UBU7 whole entry partner): as the sequence (Q9UBU7 whole entry partner) above

| EC50 (Cdc7) [nM] | IC50 (Cdc7/ASK) [nM] | Structure (SMILES) |
| --- | --- | --- |
| 251 | 5.75 | O=c1[nH]c(-c2scnc2Cl)nc(N2CCNCC(F)C2)c1Cl (racemic) [Compound 71, 5-chloro-2-(4-chlorothiazol-5-yl)-4-(6-fluoro-1,4-diazepan-1-yl)-1H-pyrimidin-6-one hydrochloride] |
| 1230 | 20 | Cc1ncsc1-c1nc(N2CCNCC2C(F)(F)F)c(Cl)c(=O)[nH]1 (centres unmarked) [Compound 60, 5-chloro-2-(4-methylthiazol-5-yl)-4-[2-(trifluoromethyl)piperazin-1-yl]-1H-pyrimidin-6-one] |
| 38 | 3.89 | C[C@@H]1CNCCN1c1nc(-c2scnc2Cl)[nH]c(=O)c1Cl [Compound 65, 5-chloro-2-(4-chlorothiazol-5-yl)-4-[(2R)-2-methylpiperazin-1-yl]-1H-pyrimidin-6-one hydrochloride] |
| 200 | 6.92 | O=c1[nH]c(-c2scnc2Cl)nc(N2CCNCC2C(F)(F)F)c1Cl (centres unmarked) [Compound 68, 5-chloro-2-(4-chlorothiazol-5-yl)-4-[2-(trifluoromethyl)piperazin-1-yl]-1H-pyrimidin-6-one] |
| 97.7 | 6.03 | O=c1[nH]c(-c2scnc2Cl)nc(N2CCNCC2C(F)F)c1Cl (centres unmarked) [Compound 67, 5-chloro-2-(4-chlorothiazol-5-yl)-4-[2-(difluoromethyl)piperazin-1-yl]-1H-pyrimidin-6-one] |
| 166 | 4.17 | C[C@@H]1COCCN1c1nc(-c2scnc2Cl)[nH]c(=O)c1Cl [Compound 64, 5-chloro-2-(4-chlorothiazol-5-yl)-4-[(3R)-3-methylmorpholin-4-yl]-1H-pyrimidin-6-one] |
| 324 | 6.76 | O=c1[nH]c(-c2scnc2Cl)nc(N2CCNCC2C(F)F)c1Cl (single isomer, unassigned) [Compound 70, 5-chloro-2-(4-chlorothiazol-5-yl)-4-[2-(difluoromethyl)piperazin-1-yl]-1H-pyrimidin-6-one hydrochloride] |
| 195 | 3.72 | O=c1[nH]c(-c2cn[nH]c2Cl)nc(N2CCNCC(F)(F)C2)c1Cl [Compound 40, 5-chloro-2-(5-chloro-1H-pyrazol-4-yl)-4-(6,6-difluoro-1,4-diazepan-1-yl)-1H-pyrimidin-6-one hydrochloride] |
| 977 | 21.4 | Cc1ncsc1-c1nc(N2CCNCC(F)C2)c(Cl)c(=O)[nH]1 (centres unmarked) [Compound 62, 5-chloro-4-(6-fluoro-1,4-diazepan-1-yl)-2-(4-methylthiazol-5-yl)-1H-pyrimidin-6-one] |
| 75.9 | 4.27 | O=c1[nH]c(-c2scnc2Cl)nc(N2CCNCC(F)(F)C2)c1Cl [Compound 66, 5-chloro-2-(4-chlorothiazol-5-yl)-4-(6,6-difluoro-1,4-diazepan-1-yl)-1H-pyrimidin-6-one hydrochloride] |
| 389 | 3.8 | C[C@@H]1COCCN1c1nc(-c2cn[nH]c2Cl)[nH]c(=O)c1Cl [Compound 42, 5-chloro-2-(5-chloro-1H-pyrazol-4-yl)-4-[(3R)-3-methylmorpholin-4-yl]-1H-pyrimidin-6-one] |
| 162 | 12.9 | Cc1ncsc1-c1nc(N2CCNCC2C(F)F)c(Cl)c(=O)[nH]1 (centres unmarked) [Compound 61, 5-chloro-4-[2-(difluoromethyl)piperazin-1-yl]-2-(4-methylthiazol-5-yl)-1H-pyrimidin-6-one] |
| 3630 | 43.7 | C[C@@H]1CNCCN1c1nc(-c2ccnn2C)[nH]c(=O)c1Cl [Compound 50, 5-chloro-4-[(2R)-2-methylpiperazin-1-yl]-2-(2-methylpyrazol-3-yl)-1H-pyrimidin-6-one] |
| 724 | 7.41 | Cc1ncsc1-c1nc(N2CCOC[C@H]2C)c(Cl)c(=O)[nH]1 [Compound 59, 5-chloro-4-[(3R)-3-methylmorpholin-4-yl]-2-(4-methylthiazol-5-yl)-1H-pyrimidin-6-one] |
| 525 | 5.5 | O=c1[nH]c(-c2scnc2C(F)(F)F)nc(N2CCNCC(F)(F)C2)c1Cl [Compound 63, 5-chloro-4-(6,6-difluoro-1,4-diazepan-1-yl)-2-[4-(trifluoromethyl)thiazol-5-yl]-1H-pyrimidin-6-one] |
| 95.5 | 3.8 | O=c1[nH]c(-c2scnc2Cl)nc(N2CCNCC(F)C2)c1Cl (single isomer, unassigned) [Compound 72, 5-chloro-2-(4-chlorothiazol-5-yl)-4-(6-fluoro-1,4-diazepan-1-yl)-1H-pyrimidin-6-one hydrochloride] |
| 4570 | 51.3 | Cc1nocc1-c1nc(N2CCNC[C@H]2C)c(Cl)c(=O)[nH]1 [Compound 49, 5-chloro-2-(3-methylisoxazol-4-yl)-4-[(2R)-2-methylpiperazin-1-yl]-1H-pyrimidin-6-one] |
| 1320 | 10.2 | O=c1[nH]c(-c2scnc2Cl)nc(N2CCNCC(F)C2)c1Cl (single isomer, unassigned) [Compound 73, 5-chloro-2-(4-chlorothiazol-5-yl)-4-(6-fluoro-1,4-diazepan-1-yl)-1H-pyrimidin-6-one hydrochloride] |
| 4170 | 44.7 | Cc1nccn1-c1nc(N2CCOC[C@H]2C)c(Cl)c(=O)[nH]1 [Compound 56, 5-chloro-2-(2-methylimidazol-1-yl)-4-[(3R)-3-methylmorpholin-4-yl]-1H-pyrimidin-6-one] |
| 724 | 6.46 | Cc1ncsc1-c1nc(N2CCNCC(F)(F)C2)c(Cl)c(=O)[nH]1 [Compound 57, 5-chloro-4-(6,6-difluoro-1,4-diazepan-1-yl)-2-(4-methylthiazol-5-yl)-1H-pyrimidin-6-one hydrochloride] |
| 16.6 | 3.39 | O=c1[nH]c(-c2scnc2Cl)nc(N2CCNCC2C(F)F)c1Cl (single isomer, unassigned) [Compound 69, 5-chloro-2-(4-chlorothiazol-5-yl)-4-[2-(difluoromethyl)piperazin-1-yl]-1H-pyrimidin-6-one hydrochloride] |
| 331 | 7.08 | Cc1ncsc1-c1nc(N2CCNC[C@H]2C)c(Cl)c(=O)[nH]1 [Compound 58, 5-chloro-4-[(2R)-2-methylpiperazin-1-yl]-2-(4-methylthiazol-5-yl)-1H-pyrimidin-6-one] |

Reference: patent US11766434B2, “Pyrimidinone derivatives as CDC7 inhibitors” (Cancer Research Technology Limited, priority 2016, dated 2023)
